Measurements as given in patent publication US8076288B2 (priority 2004, dated 2011).

Legend:
NIH/Swiss mice = conditions: for 60 min ED50: food intake, i.p.
calcitonin receptor = target: T1, calcitonin receptor (Rattus norvegicus, UniProt P32214); type: binding
T1 construct: host or cells: general text: 'CHO cells or T47D cells'
T1 sequence (P32214 25-479 isoform P32214-2 limits assumed): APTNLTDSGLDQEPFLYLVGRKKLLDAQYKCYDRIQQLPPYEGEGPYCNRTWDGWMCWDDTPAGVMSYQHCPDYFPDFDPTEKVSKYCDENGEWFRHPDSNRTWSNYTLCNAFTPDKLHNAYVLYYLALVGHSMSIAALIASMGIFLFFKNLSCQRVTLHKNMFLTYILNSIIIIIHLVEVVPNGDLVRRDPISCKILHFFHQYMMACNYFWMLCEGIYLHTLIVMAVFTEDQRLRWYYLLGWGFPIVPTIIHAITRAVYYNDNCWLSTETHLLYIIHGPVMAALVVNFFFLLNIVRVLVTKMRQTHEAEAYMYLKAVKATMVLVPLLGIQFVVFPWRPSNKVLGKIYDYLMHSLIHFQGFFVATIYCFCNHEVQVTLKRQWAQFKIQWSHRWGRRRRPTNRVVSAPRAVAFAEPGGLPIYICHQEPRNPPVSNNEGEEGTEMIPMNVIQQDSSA

CGRP receptors = target: T2, CGRP receptors (Homo sapiens, UniProt O60894+Q16602); type: binding
T2 construct: SK-N-MC and L6 cells expressing endogenous CGRP receptors; endogenous in cells; host or cells: SK-N-MC cells (membranes)
T2 sequence (Q16602 23-461): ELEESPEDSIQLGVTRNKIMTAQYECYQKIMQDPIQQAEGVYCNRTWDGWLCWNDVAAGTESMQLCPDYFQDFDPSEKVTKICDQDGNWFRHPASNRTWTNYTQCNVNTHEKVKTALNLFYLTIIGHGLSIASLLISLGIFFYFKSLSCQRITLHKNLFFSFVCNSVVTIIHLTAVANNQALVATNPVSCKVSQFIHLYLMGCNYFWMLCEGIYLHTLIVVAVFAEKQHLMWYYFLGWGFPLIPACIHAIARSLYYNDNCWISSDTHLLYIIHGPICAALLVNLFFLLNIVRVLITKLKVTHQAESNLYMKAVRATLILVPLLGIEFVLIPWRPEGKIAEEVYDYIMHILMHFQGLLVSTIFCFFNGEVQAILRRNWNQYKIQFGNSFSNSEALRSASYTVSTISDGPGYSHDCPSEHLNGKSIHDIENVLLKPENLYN
T2 sequence (O60894 27-148 partner): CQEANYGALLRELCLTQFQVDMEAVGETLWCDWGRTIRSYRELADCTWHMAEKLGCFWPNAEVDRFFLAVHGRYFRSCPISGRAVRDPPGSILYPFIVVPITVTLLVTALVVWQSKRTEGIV

CT receptor = target: T3, CT receptor (Rattus norvegicus, UniProt P32214); test: CT cyclase (C1A) assay; type: biochemical
T3 construct: host or cells: general text: 'CHO cells or T47D cells'
T3 sequence (P32214 25-479 isoform P32214-2 limits assumed): T1 sequence (P32214 25-479 isoform P32214-2 limits assumed)

amylin receptors = target: T4, amylin receptors (Rattus norvegicus, UniProt P32214); type: binding
T4 construct: nuclueus accumbens membranes prepared from rat brain; from tissue; host or cells: rat basal forebrain / nucleus accumbens membranes (male Sprague-Dawley rats)
T4 sequence (P32214 25-516): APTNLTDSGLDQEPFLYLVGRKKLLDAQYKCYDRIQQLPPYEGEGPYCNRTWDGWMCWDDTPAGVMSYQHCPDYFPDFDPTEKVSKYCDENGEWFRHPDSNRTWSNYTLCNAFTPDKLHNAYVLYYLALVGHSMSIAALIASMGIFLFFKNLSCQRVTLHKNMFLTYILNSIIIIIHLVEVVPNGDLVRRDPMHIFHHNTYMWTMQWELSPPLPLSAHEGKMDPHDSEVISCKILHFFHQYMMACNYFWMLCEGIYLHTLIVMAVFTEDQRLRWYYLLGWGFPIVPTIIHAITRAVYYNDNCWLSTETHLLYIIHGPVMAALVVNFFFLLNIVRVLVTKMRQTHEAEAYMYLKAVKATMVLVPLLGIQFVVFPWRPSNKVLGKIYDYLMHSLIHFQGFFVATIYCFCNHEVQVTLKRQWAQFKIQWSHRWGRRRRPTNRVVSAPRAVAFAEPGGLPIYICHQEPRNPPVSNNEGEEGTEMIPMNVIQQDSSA
T4 sequence (Q9JJ74 27-148 partner): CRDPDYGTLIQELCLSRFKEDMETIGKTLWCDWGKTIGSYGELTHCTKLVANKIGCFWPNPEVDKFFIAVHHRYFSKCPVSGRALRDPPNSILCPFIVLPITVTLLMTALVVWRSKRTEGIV

C57BL/6 mice (DIO) = conditions: 250 nmol/kg/day

leptin
activity in food intake assay (NIH/Swiss mice; mouse, in vivo): not active

HGEGAFTSDLSKQLEEEAVRLFIEFLKN-NH2 [Compound 12, reference compound]
60 min ED50 (NIH/Swiss mice): 13 nmol/kg

[Ser117, dLeu119]leptin(116-122)-Amylin(1-7)-[^11,18Arg]sCT(8-27) -Amylin(33-37) [Compound 16]
binding to CT receptor (calcitonin receptor): bound | anorexigenic effect in food intake assay (NIH/Swiss mice; 1 mg/kg): anorexigenic | anorexigenic effect compared with rat amylin (NIH/Swiss mice; rat amylin at 25 nmol/kg): superior to rat amylin | binding to CGRP receptor (CGRP receptors): some binding | activation of the CT receptor (CIA assay) (CT receptor): able to activate | binding to amylin receptor (amylin receptors): bound

DY(SO3) MGWMDF-NH2 [CCK-8]
% change (body weight) in DIO assay at day 2 (C57BL/6 mice (DIO); day 2): ~−2.8% | body weight in DIO assay at day 7 (C57BL/6 mice (DIO); day 7): rebounded to the HF diet control level

KCNTATCATQRLANFLVRSSNNLGPVLPPTNVGSNTY-NH2 [Rat Amylin, reference compound]
60 min ED50 (NIH/Swiss mice): 9 nmol/kg
